According to patent US20250084061A1, “SULFONYL FUNCTIONAL COMPOUND, METHODS AND USES THEREOF” (Hubei Biopesticide Engineering Research Centre, priority 2023, published 2025):

Columns and labels:
Format in all cases: in vivo
Heliothis armigera = assay: Insecticidal activity, artificial feed surface coating method; conditions: for mortality at 125 µg/mL / mortality at 250 µg/mL / mortality at 500 µg/mL: Helicoverpa armigera, read-out: Insecticidal activity (mortality rate grade) Heliothis armigera
Experimental: (§1) The insecticidal activity of sulfonyl functional compounds in the above embodiments were tested for agricultural biological functions, and the targets of insecticidal activity were Heliothis armigera, Plutella xylostella and Aphiscraccivora.
(§2) Using Heliothis armigera and Plutella xylostella as target, the insecticidal activities of sulfonyl functional compounds were tested by conventional artificial feed surface coating method. 300 microliters of artificial feed and 20 microliters of test solution were added to each well of the 24-well cell culture plate. The test solution was used in different concentrations and repeated twice (Rep1 and Rep2). The concentrations of the test solution were 500 mg/L, 250 mg/L and 125 mg/L, respectively.
(§3) The insecticidal activity of sulfonyl functional compounds against Aphiscraccivora was tested by the method of dipping. Mother liquors were prepared by the sulfonyl functional compounds provided in the above embodiments dissolved in ethanol, respectively. 500 mg/L, 250 mg/L or 125 mg/L test solution could be prepared by diluting the different mother liquors with a liquor that contained 0.1 mL/L of emulgator (Tween-80). Every test solution was tested twice (Rep1 and Rep2). A blank control was set up, and the activity results were compared with the blank control. The mortality rate of 0˜30%, 30˜50%, 50-70%, 70˜90%, or 90˜100% could be orderly set as 0, 3, 5, 7, or 9.

Plutella xylostella = assay: as above; conditions: for mortality at 125 µg/mL / mortality at 250 µg/mL / mortality at 500 µg/mL: Plutella xylostella, read-out: Insecticidal activity (mortality rate grade) Plutella xylostella
Experimental: as §1, §2, §3

Aphiscraccivora = assay: Insecticidal activity, dipping method
Experimental: as §1, §3

Compound	Insecticidal activity (mortality rate grade) Heliothis armigera (Heliothis armigera; 125 mg/L test solution)	Insecticidal activity (mortality rate grade) Heliothis armigera (Heliothis armigera; 250 mg/L test solution)	Insecticidal activity (mortality rate grade) Heliothis armigera (Heliothis armigera; 500 mg/L test solution)	Insecticidal activity (mortality rate grade) Plutella xylostella (Plutella xylostella; 125 mg/L test solution)	Insecticidal activity (mortality rate grade) Plutella xylostella (Plutella xylostella; 250 mg/L test solution)	Insecticidal activity (mortality rate grade) Plutella xylostella (Plutella xylostella; 500 mg/L test solution)	Insecticidal activity (mortality rate grade) Aphiscraccivora (Aphiscraccivora; 125 mg/L test solution)	Insecticidal activity (mortality rate grade) Aphiscraccivora (Aphiscraccivora; 250 mg/L test solution)	Insecticidal activity (mortality rate grade) Aphiscraccivora (Aphiscraccivora; 500 mg/L test solution)	mortality at 125 µg/mL (Heliothis armigera; 125 mg/L test solution)	mortality at 250 µg/mL (Heliothis armigera; 250 mg/L test solution)	mortality at 500 µg/mL (Heliothis armigera; 500 mg/L test solution)	mortality at 125 µg/mL (Plutella xylostella; 125 mg/L test solution)	mortality at 250 µg/mL (Plutella xylostella; 250 mg/L test solution)	mortality at 500 µg/mL (Plutella xylostella; 500 mg/L test solution)
CC1=NNC(=O)N(N=Cc2ccc[n+](CC=CS(=O)(=O)[O-])c2)C1 [IV-2]	0 (mortality rate of 0˜30%)	0 (mortality rate of 0˜30%)	0 (mortality rate of 0˜30%)	0 (mortality rate of 0˜30%)	3 (30˜50%)	5 (50-70%)	7 (70˜90%)	9 (90˜100%)	9 (90˜100%)						
CCC(=O)N1N=C(C)CN(N=Cc2ccc[n+](CCCCS(=O)(=O)[O-])c2)C1=O [IV-9]	0 (mortality rate of 0˜30%)	0 (mortality rate of 0˜30%)	0 (mortality rate of 0˜30%)	0 (mortality rate of 0˜30%)	0 (mortality rate of 0˜30%)	3 (30˜50%)	7 (70˜90%)	7 (70˜90%)	9 (90˜100%)						
O=C(NCCc1ccc(OC(F)(F)F)cc1)c1c[n+](CCCCS(=O)(=O)O)ccc1C(F)(F)F [Compound I-6]							5 (50-70%)	7 (70˜90%)	7 (70˜90%)	0 to 30%	0 to 30%	30 to 50%	0 to 30%	30 to 50%	50 to 70%
N#CCNC(=O)c1c[n+](CCCS(=O)(=O)O)ccc1C(F)(F)F [Compound I-1]							5 (50-70%)	7 (70˜90%)	9 (90˜100%)	0 to 30%	0 to 30%	30 to 50%	0 to 30%	0 to 30%	50 to 70%
N#CCNC(=O)c1c[n+](C/C=C/S(=O)(=O)O)ccc1C(F)(F)F [Compound I-2]							7 (70˜90%)	9 (90˜100%)	9 (90˜100%)	0 to 30%	30 to 50%	50 to 70%	0 to 30%	30 to 50%	50 to 70%
CCC(=O)N1N=C(C)CN(N=Cc2ccc[n+](CC=CS(=O)(=O)[O-])c2)C1=O [IV-7]	0 (mortality rate of 0˜30%)	0 (mortality rate of 0˜30%)	0 (mortality rate of 0˜30%)	0 (mortality rate of 0˜30%)	0 (mortality rate of 0˜30%)	3 (30˜50%)	5 (50-70%)	7 (70˜90%)	9 (90˜100%)						
CC1=NNC(=O)N(N=Cc2ccc[n+](CCCCS(=O)(=O)[O-])c2)C1 [IV-3]	0 (mortality rate of 0˜30%)	0 (mortality rate of 0˜30%)	3 (30˜50%)	0 (mortality rate of 0˜30%)	3 (30˜50%)	3 (30˜50%)	9 (90˜100%)	9 (90˜100%)	9 (90˜100%)						
O=C(NCCc1ccc(OC(F)(F)F)cc1)c1c[n+](CCCS(=O)(=O)O)ccc1C(F)(F)F [Compound I-4]							3 (30˜50%)	5 (50-70%)	7 (70˜90%)	0 to 30%	30 to 50%	30 to 50%	0 to 30%	30 to 50%	50 to 70%
CC(=O)N1N=C(C)CN(N=Cc2ccc[n+](CCCCS(=O)(=O)[O-])c2)C1=O [IV-8]	0 (mortality rate of 0˜30%)	0 (mortality rate of 0˜30%)	0 (mortality rate of 0˜30%)	0 (mortality rate of 0˜30%)	3 (30˜50%)	3 (30˜50%)	9 (90˜100%)	9 (90˜100%)	9 (90˜100%)						
CC(=O)N1N=C(C)CN(N=Cc2ccc[n+](CC=CS(=O)(=O)[O-])c2)C1=O [IV-6]	0 (mortality rate of 0˜30%)	3 (30˜50%)	3 (30˜50%)	0 (mortality rate of 0˜30%)	3 (30˜50%)	5 (50-70%)	5 (50-70%)	9 (90˜100%)	9 (90˜100%)						
CCC(=O)N1N=C(C)CN(N=Cc2ccc[n+](CCCS(=O)(=O)[O-])c2)C1=O [IV-5]	0 (mortality rate of 0˜30%)	0 (mortality rate of 0˜30%)	0 (mortality rate of 0˜30%)	0 (mortality rate of 0˜30%)	0 (mortality rate of 0˜30%)	3 (30˜50%)	7 (70˜90%)	7 (70˜90%)	9 (90˜100%)						
O=C(NCCc1ccc(OC(F)(F)F)cc1)c1c[n+](C/C=C/S(=O)(=O)O)ccc1C(F)(F)F [Compound I-5]							3 (30˜50%)	3 (30˜50%)	7 (70˜90%)	0 to 30%	0 to 30%	30 to 50%	30 to 50%	50 to 70%	50 to 70%
N#CCNC(=O)c1c[n+](CCCCS(=O)(=O)O)ccc1C(F)(F)F [Compound I-3]							7 (70˜90%)	7 (70˜90%)	9 (90˜100%)	0 to 30%	30 to 50%	30 to 50%	30 to 50%	50 to 70%	50 to 70%
CC1=NNC(=O)N(N=Cc2ccc[n+](CCCS(=O)(=O)[O-])c2)C1 [IV-1]	0 (mortality rate of 0˜30%)	3 (30˜50%)	3 (30˜50%)	3 (30˜50%)	3 (30˜50%)	5 (50-70%)	9 (90˜100%)	9 (90˜100%)	9 (90˜100%)						
CC(=O)N1N=C(C)CN(N=Cc2ccc[n+](CCCS(=O)(=O)[O-])c2)C1=O [IV-4]	0 (mortality rate of 0˜30%)	3 (30˜50%)	5 (50-70%)	3 (30˜50%)	5 (50-70%)	5 (50-70%)	9 (90˜100%)	9 (90˜100%)	9 (90˜100%)						
